Counter-ions that a name gives are not always drawn.
What was measured:
Assay type in all cases: cell-based, human
[1] = test system: carbachol-evoked Ca^2+ signals in hBASMCs; test: Carbachol-evoked Ca2+ signals in populations of fluo-4-loaded hBASMCs; settings: cells treated with PTX 100 ng·mL^−1, 24 h; HBS
Method: Two methods were used to measure [Ca^2+]i in populations of hBASMCs. For measurements using a FlexStation III plate-reader (Molecular Devices, Sunnyvale, CA, USA), hBASMCs were seeded into 96-well plates (10^4 cells per well). After about 4 days, when the cells were confluent, the medium was replaced with SMGM-2 without serum or growth factor supplements, and the cells were used after a further 24 h. […] Cells were washed with HEPES-buffered saline (HBS: 135 mM NaCl, 5.9 mM KCl, 1.2 mM MgCl2, 1.5 mM CaCl2, 11.6 mM HEPES, 11.5 mM D-glucose, pH 7.3), and loaded with fluo-4 by incubation with fluo-4-AM (2 μM) in HBS (100 μL per well) containing pluronic F127 (0.02%, v/v) and probenecid (2.5 mM). After 1 h at 20 °C, the medium was replaced with HBS (100 μL per well) containing probenecid (2.5 mM). After a further incubation at 20 °C for 1 h, the medium was replaced with HBS (60–80 μL per well) or nominally Ca^2+-free HBS, and the cells were used immediately for experiments at 20 °C. […] Drug additions (20 μL at 4 or 5 times the final concentration) were added automatically. Fluorescence from fluo-4 (excitation 485 nm, emission 525 nm) was recorded at 1.44-s intervals using Softmax Pro 5.4 (Molecular Devices). Fluorescence was calibrated to [Ca^2+]i from: [Ca^2+]i=KDCa×(F−Fmin/Fmax−F) where, KDCa is the equilibrium dissociation constant of fluo-4 for Ca^2+ (345 nM), F is the recorded fluorescence, and Fmin and Fmax are the fluorescence values recorded after addition of triton-X-100 (0.1%, v/v) with either BAPTA (10 mM, Fmin) or CaCl2 (10 mM, Fmax). […] Fmax was determined for each well at the end of an experiment, and the average value was used for each column of 8 wells. Fmin was determined from parallel wells on each plate.
For measurements of [Ca^2+]i using an FDSS 7000 FLIPR (Hamamatsu), hBASMCs were seeded into 384-well plates (8000 cells per well) in 20 μL of SMGM-2 containing 5% serum. […] The exact composition of this ‘no-wash’ indicator kit is not disclosed by the manufacturer, but it contains fluo-4-AM and components that reduce background fluorescence. […]

[2] = test system: intracellular cAMP in hBASMCs; test: Intracellular cAMP in hBASMCs by [3H]-adenine labeling; settings: isoproterenol 10 μM, sustained incubation; [3H]-adenine labeling
Method: hBASMCs in 24-well plates (50,000 cells per well) were grown to confluence. The medium was then replaced with serum-free SMGM-2, and after 24 h this was supplemented with [^3H]-adenine (1 μCi per well, 18.4 Ci·mmol^−1). After 2 h at 37 °C in humidified air with 5% CO2, the medium was removed, and the cells were washed twice with HBS. The cells were stimulated at 20 °C in HBS. Incubations were terminated by removal of the medium, addition of ice-cold trichloroacetic acid (5%, 1 mL) and rapid freezing. This protocol ensured that only intracellular [^3H]-cAMP was detected. [^3H]-adenine nucleotides were separated by column chromatography, and the activity was determined by liquid scintillation counting using Ultra-gold scintillant. Results are presented as [^3H]-cAMP activity as a percentage of the sum of the activities of the fractions containing [^3H]-cAMP, [^3H]-ATP, [^3H]-ADP and [^3H]-AMP; henceforth, reported as [^3H]-cAMP (%).

[3] = test system: intracellular Ca^2+ stores of hBASMCs; test: Ca2+ content of intracellular stores, by ionomycin in Ca2+-free HBS; settings: isoproterenol, forskolin 10 μM, 5 min, 2-APB 5 min, higher concentrations needed than for inhibition of GPCR-evoked signals

For `CC(C)NC[C@H](O)c1ccc(O)c(O)c1` [isoproterenol, (−)-isoproterenol hydrochloride], the “effect on the Ca2+ signals evoked by carbachol after pertussis toxin” value [1] was “remained insensitive to isoproterenol”, the “stimulated cAMP concentration after 30 min relative to after 1 min” value [2] was 2.8 fold and the “effect on the Ca2+ content of the intracellular stores” value [3] was “Neither isoproterenol nor forskolin (10 μM, 5 min) affected”.

From PMC5893132, “Selective inhibition of histamine-evoked Ca^2+ signals by compartmentalized cAMP in human bronchial airway smooth muscle cells” (Cell Calcium, 2018)
